The target of test [1] is Phosphatidylinositol 4,5-bisphosphate 3-kinase catalytic subunit alpha isoform (Homo sapiens) (UniProt P42336). Put plainly: Inhibition of PIK3CA (unknown origin) assessed as residual activity at 1000 nM by KINOMEscan analysis relative to control.
The test system of test [2] is Tyrosine-protein kinase ABL1 (Homo sapiens), P00519 [F317L]. In words: Inhibition of nonphosphorylated ABL1 F317L mutant (unknown origin) assessed as residual activity at 1000 nM by KINOMEscan analysis relative to control.
Sequence of Tyrosine-protein kinase ABL1 (Homo sapiens), P00519 [F317L] (P00519 whole entry F317L): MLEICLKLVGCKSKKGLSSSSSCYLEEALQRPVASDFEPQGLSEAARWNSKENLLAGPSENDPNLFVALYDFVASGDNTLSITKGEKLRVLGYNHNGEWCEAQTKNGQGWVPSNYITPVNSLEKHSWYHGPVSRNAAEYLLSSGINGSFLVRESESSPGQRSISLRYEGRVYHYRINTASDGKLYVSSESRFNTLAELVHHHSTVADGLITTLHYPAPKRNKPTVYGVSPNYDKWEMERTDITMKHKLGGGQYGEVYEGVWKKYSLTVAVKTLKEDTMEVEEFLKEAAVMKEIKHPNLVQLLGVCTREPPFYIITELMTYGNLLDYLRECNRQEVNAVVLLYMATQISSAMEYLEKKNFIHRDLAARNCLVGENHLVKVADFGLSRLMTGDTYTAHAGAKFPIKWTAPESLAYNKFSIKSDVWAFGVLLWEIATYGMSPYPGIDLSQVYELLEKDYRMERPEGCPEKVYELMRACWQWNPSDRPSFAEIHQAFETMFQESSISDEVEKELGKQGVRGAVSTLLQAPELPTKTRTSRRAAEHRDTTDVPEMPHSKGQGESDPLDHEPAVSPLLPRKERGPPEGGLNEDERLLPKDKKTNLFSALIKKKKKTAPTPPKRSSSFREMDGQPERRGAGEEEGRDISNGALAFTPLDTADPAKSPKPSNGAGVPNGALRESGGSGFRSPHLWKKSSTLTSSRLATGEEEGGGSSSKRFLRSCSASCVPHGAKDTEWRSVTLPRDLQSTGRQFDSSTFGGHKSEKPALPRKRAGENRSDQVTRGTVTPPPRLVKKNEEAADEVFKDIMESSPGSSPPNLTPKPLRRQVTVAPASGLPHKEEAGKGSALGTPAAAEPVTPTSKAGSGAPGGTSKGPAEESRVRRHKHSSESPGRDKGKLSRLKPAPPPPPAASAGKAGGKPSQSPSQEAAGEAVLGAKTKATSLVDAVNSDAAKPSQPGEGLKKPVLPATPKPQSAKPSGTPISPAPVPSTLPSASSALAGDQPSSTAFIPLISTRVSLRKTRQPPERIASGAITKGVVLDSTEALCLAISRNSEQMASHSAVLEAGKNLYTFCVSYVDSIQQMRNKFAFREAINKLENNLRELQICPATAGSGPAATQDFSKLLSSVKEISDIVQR
In test [3] the target is Calcium/calmodulin-dependent protein kinase kinase 1 (Homo sapiens) (UniProt Q8N5S9). Put plainly: Inhibition of CAMKK1 (unknown origin) assessed as residual activity at 1000 nM by KINOMEscan analysis relative to control.
Sequence of Calcium/calmodulin-dependent protein kinase kinase 1 (Homo sapiens) (Q8N5S9 whole entry, looked up): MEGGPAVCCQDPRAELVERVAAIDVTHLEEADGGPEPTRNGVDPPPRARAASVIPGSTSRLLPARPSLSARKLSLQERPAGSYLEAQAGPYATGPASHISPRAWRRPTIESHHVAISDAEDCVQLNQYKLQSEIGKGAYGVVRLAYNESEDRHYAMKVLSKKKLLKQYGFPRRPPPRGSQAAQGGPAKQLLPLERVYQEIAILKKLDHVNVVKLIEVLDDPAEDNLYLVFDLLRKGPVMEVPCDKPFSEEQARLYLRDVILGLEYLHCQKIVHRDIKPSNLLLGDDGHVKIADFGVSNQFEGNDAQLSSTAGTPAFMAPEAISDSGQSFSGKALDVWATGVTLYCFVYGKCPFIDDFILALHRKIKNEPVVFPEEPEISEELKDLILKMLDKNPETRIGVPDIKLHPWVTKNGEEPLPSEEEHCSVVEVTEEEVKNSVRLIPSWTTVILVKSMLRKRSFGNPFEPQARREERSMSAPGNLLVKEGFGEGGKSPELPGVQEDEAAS
Test [4] concerns the target Tyrosine-protein kinase HCK (Homo sapiens) (UniProt P08631). Put plainly: Inhibition of HCK (unknown origin) assessed as residual activity at 1000 nM by KINOMEscan analysis relative to control.
The target of test [5] is Activin receptor type-1-like (Homo sapiens) (UniProt P37023). Put plainly: Inhibition of ACVRL1 (unknown origin) assessed as residual activity at 1000 nM by KINOMEscan analysis relative to control.
Sequence of Activin receptor type-1-like (Homo sapiens) (P37023 whole entry): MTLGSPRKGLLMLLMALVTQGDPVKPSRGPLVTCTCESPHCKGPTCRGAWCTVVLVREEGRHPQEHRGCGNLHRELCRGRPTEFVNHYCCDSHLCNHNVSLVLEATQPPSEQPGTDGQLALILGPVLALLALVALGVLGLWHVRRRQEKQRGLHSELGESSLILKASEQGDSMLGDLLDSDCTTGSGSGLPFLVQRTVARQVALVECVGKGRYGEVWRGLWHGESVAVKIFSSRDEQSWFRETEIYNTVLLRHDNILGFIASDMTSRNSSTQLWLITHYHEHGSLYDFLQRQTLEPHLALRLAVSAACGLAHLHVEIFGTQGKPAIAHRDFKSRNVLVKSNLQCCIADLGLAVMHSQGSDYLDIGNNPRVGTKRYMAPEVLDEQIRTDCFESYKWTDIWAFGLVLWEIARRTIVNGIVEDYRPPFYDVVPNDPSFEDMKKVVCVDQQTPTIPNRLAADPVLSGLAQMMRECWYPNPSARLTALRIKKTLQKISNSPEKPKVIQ
Test [6] has as its target Mitogen-activated protein kinase kinase kinase 1 (Homo sapiens) (UniProt Q13233). Put plainly: Inhibition of MAP3K1 (unknown origin) assessed as residual activity at 1000 nM by KINOMEscan analysis relative to control.
Test [7] deals with T1, Ephrin type-A receptor 3 (Homo sapiens) (UniProt P29320).
T1 sequence (whole entry): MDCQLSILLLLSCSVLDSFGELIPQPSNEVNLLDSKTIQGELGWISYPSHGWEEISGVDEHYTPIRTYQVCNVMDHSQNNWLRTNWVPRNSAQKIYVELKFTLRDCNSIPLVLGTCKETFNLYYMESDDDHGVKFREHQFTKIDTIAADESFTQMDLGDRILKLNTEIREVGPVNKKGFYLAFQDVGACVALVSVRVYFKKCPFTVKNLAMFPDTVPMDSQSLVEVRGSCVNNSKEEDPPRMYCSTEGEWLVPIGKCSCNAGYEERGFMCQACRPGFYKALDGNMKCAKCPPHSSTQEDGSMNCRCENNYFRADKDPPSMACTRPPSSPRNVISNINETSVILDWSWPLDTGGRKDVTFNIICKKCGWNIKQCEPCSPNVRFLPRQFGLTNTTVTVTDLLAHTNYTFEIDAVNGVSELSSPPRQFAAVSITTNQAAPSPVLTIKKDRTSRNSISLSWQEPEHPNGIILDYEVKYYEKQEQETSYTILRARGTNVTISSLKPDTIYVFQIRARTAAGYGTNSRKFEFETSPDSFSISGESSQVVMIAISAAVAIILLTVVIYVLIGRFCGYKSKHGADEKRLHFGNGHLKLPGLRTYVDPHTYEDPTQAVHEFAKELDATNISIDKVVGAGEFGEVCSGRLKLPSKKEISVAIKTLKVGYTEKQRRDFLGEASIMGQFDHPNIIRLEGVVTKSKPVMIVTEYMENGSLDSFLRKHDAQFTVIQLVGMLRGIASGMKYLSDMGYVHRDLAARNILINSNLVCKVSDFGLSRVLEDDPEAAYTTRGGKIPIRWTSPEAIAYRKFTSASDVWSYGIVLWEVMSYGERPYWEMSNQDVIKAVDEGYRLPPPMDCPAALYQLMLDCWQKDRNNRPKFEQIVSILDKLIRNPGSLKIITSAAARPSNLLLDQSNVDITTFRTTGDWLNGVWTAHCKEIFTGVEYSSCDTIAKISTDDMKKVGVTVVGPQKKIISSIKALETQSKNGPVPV
Put plainly: Inhibition of EPHA3 (unknown origin) assessed as residual activity at 1000 nM by KINOMEscan analysis relative to control.

Test [8] has as its target Serine/threonine-protein kinase 38-like (Homo sapiens) (UniProt Q9Y2H1). In words: Inhibition of NDR2 (unknown origin) assessed as residual activity at 1000 nM by KINOMEscan analysis relative to control.
Test [9] deals with Serine/threonine-protein kinase SBK1 (Homo sapiens) (UniProt Q52WX2). Put plainly: Inhibition of SBK1 (unknown origin) assessed as residual activity at 1000 nM by KINOMEscan analysis relative to control.
Test [10] concerns the target T2, Tyrosine-protein kinase receptor TYRO3 (Homo sapiens) (UniProt Q06418).
T2 sequence (whole entry): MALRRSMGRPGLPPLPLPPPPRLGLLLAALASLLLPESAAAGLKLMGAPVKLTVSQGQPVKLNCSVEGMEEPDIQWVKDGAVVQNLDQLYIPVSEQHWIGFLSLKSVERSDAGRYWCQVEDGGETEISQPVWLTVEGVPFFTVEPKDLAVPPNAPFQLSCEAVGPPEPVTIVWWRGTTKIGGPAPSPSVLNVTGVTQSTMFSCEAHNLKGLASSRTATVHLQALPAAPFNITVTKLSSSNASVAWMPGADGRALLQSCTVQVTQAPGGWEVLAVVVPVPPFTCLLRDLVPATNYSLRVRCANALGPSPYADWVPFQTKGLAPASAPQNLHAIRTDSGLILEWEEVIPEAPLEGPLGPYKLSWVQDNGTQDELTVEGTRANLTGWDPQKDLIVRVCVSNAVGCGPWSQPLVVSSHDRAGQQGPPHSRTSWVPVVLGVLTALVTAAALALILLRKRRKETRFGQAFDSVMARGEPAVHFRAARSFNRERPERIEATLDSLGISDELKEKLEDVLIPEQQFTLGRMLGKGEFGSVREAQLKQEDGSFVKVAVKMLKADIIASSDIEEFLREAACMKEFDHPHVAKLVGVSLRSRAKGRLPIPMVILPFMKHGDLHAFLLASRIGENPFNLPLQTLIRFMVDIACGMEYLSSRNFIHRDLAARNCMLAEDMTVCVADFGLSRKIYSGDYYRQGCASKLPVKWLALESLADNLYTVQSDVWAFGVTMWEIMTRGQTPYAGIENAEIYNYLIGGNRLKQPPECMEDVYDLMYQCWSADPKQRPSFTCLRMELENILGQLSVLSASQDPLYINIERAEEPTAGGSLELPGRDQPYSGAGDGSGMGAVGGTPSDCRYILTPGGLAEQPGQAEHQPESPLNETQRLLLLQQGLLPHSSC
Put plainly: Inhibition of TYRO3 (unknown origin) assessed as residual activity at 1000 nM by KINOMEscan analysis relative to control.

Test [11] has as its system Phosphatidylinositol 4,5-bisphosphate 3-kinase catalytic subunit alpha isoform (Homo sapiens), P42336 [E542K]. In words: Inhibition of PIK3CA E542K mutant (unknown origin) assessed as residual activity at 1000 nM by KINOMEscan analysis relative to control.
The target of test [12] is Casein kinase I isoform delta (Homo sapiens) (UniProt P48730). Put plainly: Inhibition of CSNK1D (unknown origin) assessed as residual activity at 1000 nM by KINOMEscan analysis relative to control.
Sequence of Casein kinase I isoform delta (Homo sapiens) (P48730 whole entry, looked up, canonical isoform): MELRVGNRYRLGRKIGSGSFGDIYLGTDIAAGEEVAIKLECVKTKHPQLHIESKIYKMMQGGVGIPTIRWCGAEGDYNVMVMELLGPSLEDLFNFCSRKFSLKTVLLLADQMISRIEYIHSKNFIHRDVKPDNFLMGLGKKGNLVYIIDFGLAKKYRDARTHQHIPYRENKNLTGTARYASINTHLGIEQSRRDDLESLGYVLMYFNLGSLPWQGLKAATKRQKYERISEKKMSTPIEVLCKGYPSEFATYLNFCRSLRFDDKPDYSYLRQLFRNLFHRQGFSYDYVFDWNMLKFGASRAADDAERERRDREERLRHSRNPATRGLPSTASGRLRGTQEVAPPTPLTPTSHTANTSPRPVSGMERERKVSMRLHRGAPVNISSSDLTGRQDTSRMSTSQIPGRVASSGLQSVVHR
For test [13], the target named is Cyclin-dependent kinase-like 1 (Homo sapiens) (UniProt Q00532). Put plainly: Inhibition of CDKL1 (unknown origin) assessed as residual activity at 1000 nM by KINOMEscan analysis relative to control.
Sequence of Cyclin-dependent kinase-like 1 (Homo sapiens) (Q00532 whole entry): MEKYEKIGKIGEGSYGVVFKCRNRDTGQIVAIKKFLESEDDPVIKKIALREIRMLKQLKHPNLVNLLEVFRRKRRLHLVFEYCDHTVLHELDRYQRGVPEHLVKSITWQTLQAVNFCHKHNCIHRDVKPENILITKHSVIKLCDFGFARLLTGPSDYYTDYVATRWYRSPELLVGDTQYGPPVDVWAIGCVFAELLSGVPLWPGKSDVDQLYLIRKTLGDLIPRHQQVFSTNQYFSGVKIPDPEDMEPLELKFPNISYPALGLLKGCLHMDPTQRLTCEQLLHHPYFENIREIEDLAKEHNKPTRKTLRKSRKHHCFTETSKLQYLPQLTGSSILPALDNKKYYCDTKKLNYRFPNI

Sequence of Serine/threonine-protein kinase 38-like (Homo sapiens) (Q9Y2H1 2-464 limits assumed): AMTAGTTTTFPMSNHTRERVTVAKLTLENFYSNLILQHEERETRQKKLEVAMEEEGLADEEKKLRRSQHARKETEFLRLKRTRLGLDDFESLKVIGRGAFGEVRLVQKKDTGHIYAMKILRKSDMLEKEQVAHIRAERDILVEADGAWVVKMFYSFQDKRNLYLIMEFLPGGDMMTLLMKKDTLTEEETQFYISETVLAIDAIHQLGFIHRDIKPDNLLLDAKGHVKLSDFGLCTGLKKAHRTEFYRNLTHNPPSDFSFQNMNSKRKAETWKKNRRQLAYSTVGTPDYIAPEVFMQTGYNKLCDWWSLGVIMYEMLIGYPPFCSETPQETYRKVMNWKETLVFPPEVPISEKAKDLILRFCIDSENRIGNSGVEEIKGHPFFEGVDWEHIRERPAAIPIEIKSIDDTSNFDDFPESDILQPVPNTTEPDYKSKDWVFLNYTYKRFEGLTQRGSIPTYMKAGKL
Sequence of Phosphatidylinositol 4,5-bisphosphate 3-kinase catalytic subunit alpha isoform (Homo sapiens) (P42336 whole entry, canonical isoform): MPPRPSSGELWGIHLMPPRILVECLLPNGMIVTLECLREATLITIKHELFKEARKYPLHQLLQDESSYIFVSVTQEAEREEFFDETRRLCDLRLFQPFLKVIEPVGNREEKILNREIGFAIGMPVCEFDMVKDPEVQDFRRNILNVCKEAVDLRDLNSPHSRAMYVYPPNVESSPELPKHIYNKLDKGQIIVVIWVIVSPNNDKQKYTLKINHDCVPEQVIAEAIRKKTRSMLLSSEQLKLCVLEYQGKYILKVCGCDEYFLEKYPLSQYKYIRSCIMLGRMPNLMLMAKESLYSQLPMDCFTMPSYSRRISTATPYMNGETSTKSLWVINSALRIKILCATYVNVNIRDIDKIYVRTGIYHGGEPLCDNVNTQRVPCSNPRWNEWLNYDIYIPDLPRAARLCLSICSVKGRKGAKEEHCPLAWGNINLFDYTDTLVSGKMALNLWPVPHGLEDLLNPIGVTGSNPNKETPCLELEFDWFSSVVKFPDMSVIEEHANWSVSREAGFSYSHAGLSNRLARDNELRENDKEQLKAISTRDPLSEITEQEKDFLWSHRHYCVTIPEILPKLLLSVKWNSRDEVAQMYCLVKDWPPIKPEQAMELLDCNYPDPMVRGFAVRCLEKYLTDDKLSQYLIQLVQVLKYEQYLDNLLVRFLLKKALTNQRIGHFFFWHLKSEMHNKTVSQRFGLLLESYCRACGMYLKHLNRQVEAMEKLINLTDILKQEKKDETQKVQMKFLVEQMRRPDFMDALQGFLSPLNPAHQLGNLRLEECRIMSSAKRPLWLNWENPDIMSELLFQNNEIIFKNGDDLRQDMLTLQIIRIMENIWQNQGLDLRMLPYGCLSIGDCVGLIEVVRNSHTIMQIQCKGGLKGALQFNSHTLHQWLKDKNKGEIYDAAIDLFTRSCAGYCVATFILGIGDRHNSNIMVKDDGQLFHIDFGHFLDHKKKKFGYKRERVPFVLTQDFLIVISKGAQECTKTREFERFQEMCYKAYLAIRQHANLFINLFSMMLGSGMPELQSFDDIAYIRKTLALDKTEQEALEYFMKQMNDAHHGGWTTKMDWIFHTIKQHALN
Sequence of Tyrosine-protein kinase HCK (Homo sapiens) (P08631 2-526 limits assumed): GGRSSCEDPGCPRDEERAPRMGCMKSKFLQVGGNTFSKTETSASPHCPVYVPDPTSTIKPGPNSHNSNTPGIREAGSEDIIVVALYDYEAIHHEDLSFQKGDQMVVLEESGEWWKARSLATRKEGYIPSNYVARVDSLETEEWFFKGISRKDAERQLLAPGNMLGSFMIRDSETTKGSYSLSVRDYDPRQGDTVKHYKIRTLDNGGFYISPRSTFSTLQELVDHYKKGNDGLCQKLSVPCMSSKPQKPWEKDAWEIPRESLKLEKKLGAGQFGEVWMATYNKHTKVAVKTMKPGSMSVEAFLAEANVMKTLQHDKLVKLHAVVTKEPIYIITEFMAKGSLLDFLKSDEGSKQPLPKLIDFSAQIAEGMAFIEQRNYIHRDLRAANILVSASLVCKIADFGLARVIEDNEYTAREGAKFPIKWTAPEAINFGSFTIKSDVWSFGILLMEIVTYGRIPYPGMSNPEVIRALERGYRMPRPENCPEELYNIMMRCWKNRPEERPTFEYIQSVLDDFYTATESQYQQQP

For `COc1cc2nc(C)nc(N[C@H](C)c3cccc(-c4cn[nH]c4)c3)c2cc1OC`, the Activity was 96% in [1]; 99% in [2]; 73% in [3]; 77% in test [4]; 99% in [5]; 77% in [6]. For the same molecule, the Activity in test [7] was found to be 90%; in test [8], 87%; in test [9] it was 85%; in [10] it was 66%; in test [11], 78%; in [12], 100%. Also, in test [13], the Activity is 73%.

Take `COc1cc2ncnc(N[C@H](C)c3cccc4ccccc34)c2cc1OC`: the Activity was found to be 73% in test [1]; 99% in test [2]; 97% in test [3]; 93% in test [4]; 100% in test [5]; 100% in test [6]. For the same molecule, the Activity in [7] was 48%; in [8], 86%; in test [9], 86%; in test [10], 90%; in test [11], 96%; in test [12], 95%. The Activity in test [13] turned out to be 89%.

Source of the values: ChEMBL document CHEMBL5678818, “Discovery of potent SOS1 inhibitors that block RAS activation via disruption of the RAS-SOS1 interaction” (Proc Natl Acad Sci U S A, 2019).
